1 molecule from patent US11976062B2, “Benzisoxazole compound” (OSAKA UNIVERSITY, priority 2018, dated 2024) can be followed below.

A word on the IC50: it is the point on the concentration scale where inhibition reaches its midpoint.

The experiment addresses T1, TRPC3 channel (Homo sapiens, UniProt Q13507).
T1 construct: expressed in transfected cells; host or cells: HEK293
T1 sequence (Q13507 1-921): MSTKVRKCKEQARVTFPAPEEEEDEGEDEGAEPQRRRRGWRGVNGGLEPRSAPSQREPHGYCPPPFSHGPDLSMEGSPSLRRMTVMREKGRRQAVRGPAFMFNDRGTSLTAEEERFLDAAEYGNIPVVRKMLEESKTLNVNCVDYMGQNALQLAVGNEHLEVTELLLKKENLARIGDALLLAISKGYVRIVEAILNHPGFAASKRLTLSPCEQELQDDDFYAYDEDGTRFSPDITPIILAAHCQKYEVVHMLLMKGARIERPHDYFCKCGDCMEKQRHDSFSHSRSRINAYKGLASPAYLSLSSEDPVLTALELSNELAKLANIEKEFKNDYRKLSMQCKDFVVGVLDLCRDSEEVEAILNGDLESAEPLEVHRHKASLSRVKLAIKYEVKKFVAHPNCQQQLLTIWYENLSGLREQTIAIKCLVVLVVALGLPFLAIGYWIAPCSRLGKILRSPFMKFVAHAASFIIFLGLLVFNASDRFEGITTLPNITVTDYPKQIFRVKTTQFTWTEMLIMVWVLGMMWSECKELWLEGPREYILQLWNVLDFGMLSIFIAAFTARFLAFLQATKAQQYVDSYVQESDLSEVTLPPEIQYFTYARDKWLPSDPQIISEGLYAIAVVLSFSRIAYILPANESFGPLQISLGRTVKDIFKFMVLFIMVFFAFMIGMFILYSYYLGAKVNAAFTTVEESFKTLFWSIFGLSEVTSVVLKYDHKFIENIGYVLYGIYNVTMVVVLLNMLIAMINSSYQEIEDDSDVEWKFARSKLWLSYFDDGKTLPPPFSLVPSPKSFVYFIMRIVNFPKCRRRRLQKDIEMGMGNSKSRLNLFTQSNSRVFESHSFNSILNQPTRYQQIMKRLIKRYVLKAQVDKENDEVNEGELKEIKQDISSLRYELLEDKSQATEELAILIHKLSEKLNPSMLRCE
The experiment can be described thus: Calcium assay using HEK293 cells transiently expressing TRPC3 channel, carbachol activation (Fura-2). The format is cell-based. The procedure:
A TRPC6 gene was introduced into HEK293 cells (cells derived from human fetal kidney) by lipofection, and the TRPC6 channel was expressed on the cell membrane. Specifically, the plasmid DNA of TRPC6 (pCI-neo; Promega Corporation) was introduced into HEK293 cells using a lipofection reagent, and then cultured at 37° C. for 24 to 48 hours to express the TRPC6 channel on the cell membrane. In the same manner, HEK293 cells into which the TRPC3 gene was introduced were cultured, and the TRPC3 channel was expressed on the cell membrane.
The cultured cells were peeled off with trypsin and seeded on a cover glass again, followed by culturing the cells at 37° C. for 3 hours again. A Fura-2 AM calcium indicator was added to the medium, and the cells were cultured at 37° C. for 30 minutes to allow the cells to incorporate the indicator. For the extracellular solution, a Ca^2+-containing solution and a Ca^2+-free solution were prepared. • Ca^2+-containing solution: 2 mM CaCl2, 132 mM NaCl, 4 mM KCl, 1 mM MgCl2, 5 mM glucose, 5 mM HEPES (pH 7.4) • Ca^2+-free solution: 132 mM NaCl, 4 mM KCl, 1 mM MgCl2, 5 mM glucose, 5 mM HEPES (pH 7.4) […]

Molecules are shown by their SMILES.

On to `O=C(O)c1cnc(N2CCN(c3noc4cccc(C(F)(F)F)c34)CC2)c(Cl)c1` [Compound 011, 5-chloro-6-(4-(4-(trifluoromethyl)benzo[d]isoxazol-3-yl)piperazin-1-yl) nicotinic acid], for which, under “TRPC3, FIG. 2, from about 100 nM, control (DMSO) about 350 nM”, the “Ca2+ concentration in the cells reached after addition of carbachol” value is “about 180 nM”. Moreover, the 50% inhibitory concentration (IC50) (TRPC3-expressing HEK293 cells, carbachol 100 μM, from concentration-response curves, read-out: IC50 for inhibition of the TRPC3 channel) was 700 nM.
